Marks after values point to notes of the source that are not given here.
Tests used:
[1] = tested on: Masugi nephritis rabbits; assay: Masugi nephritis in rabbits: urine protein; format: in vivo; conditions: 0.1 mg/kg/day i.v.
Procedure: (§1) Twenty-two healthy rabbits were randomized into 5 groups: peptide (107.3 μg/kg/day and 58.5 μg/kg/day, 4 rabbits per group), dexamethasone (0.1 mg/kg/day, 4 rabbits), saline treatment (1 ml/day, 7 rabbits), and normal healthy (3 rabbits). Before the establishment of a disease state in the rabbits, measurements of serum BUN, creatinine, and urine protein over 24 hours were taken for each rabbit. If there was no abnormality in these measurements, the Masugi nephritis model was established in experimental rabbits by intravenous injection of sheep anti-rabbit renal cortex antiserum via the auricular vein, 0.5 ml per injection, one injection every 30 minutes, for a total of 4 injections per rabbit. The normal healthy (control) rabbit group was injected with saline in the same manner. Intravenous administration of the test substances via the auricular vein was started on the day after the injection of the antiserum, once per day, 1 ml per injection, for 30 consecutive days.
Urine was collected from each rabbit over a 24 hour period once per week and the protein content determined by the sulfosalicylic acid method.
(§2) Statistical significance was determined by the t-test of the SPSS software.

[2] = tested on: Masugi nephritis rabbits; assay: Masugi nephritis in rabbits: clearance of sheep anti-rabbit renal cortex IgG antibody (glomerular immunofluorescence); format: in vivo; conditions: 0.1 mg/kg/day i.v. 30 days, saline treatment 8.7 ± 0.9
Procedure: as §1, with “Before” for “Twenty-two healthy rabbits were randomized into 5 groups: peptide (107.3 μg/kg/day and 58.5 μg/kg/day, 4 rabbits per group), dexamethasone (0.1 mg/kg/day, 4 rabbits), saline treatment (1 ml/day, 7 rabbits), and normal healthy (3 rabbits). Before”
For observation of the effects of peptides on the clearance of sheep anti-rabbit renal cortex IgG antibody from Masugi nephritis rabbits, on the day after the last test substance administration, the rabbits were sacrificed by suffocation and the right kidney was extirpated, freeze-edged and then immunofluorescently stained for the presence of sheep IgG. The fluorescence-positive area of each glomerulus was counted. Thirty glomeruli per rabbit were examined and the average positive area per glomerulus was calculated.
as §2

[3] = tested on: S180 sarcoma cells; assay: Growth of KM mice-transplanted S180 sarcoma cells in vivo; set-up: unit not given here; conditions: Table 12; for Sarcoma volume: V=(1/6)πABC, saline 1.20 ± 0.28; for Sarcoma weight: saline 1.87 ± 0.52
Procedure: S180 sarcoma cells were transplanted intraperitoneally into KM mice for 6-8 days and the ascites aseptically collected. The cell concentration was adjusted to 1×10^7 per ml with 10% FBS RPMI-1640, and 0.2 ml cell suspension was injected through the armpit into each KM mice for developing the sarcoma bearing mice model. […] Intraperitoneal injection of test substances started on the day immediately after tumor transplantation and continued once per day for 20 consecutive days.
On the day after the last test substance administration, the sarcomas were removed from the mice and weighed. The diameters of each sarcoma on the three planes (A, B, C) were measured by a vernier caliper. The volume of the sarcoma was calculated by the formula: V=(⅙)πABC.

[4] = tested on: mice T-lymphocyte; assay: Mice T-lymphocyte transformation in vivo (i.p. dosing 20 days, spleen cells + ConA, MTT, stimulation index); set-up: species or system BALB/c mice; conditions: for Effect on mice T-lymphocyte transformation in vivo: at suitable dosages, vs saline control P<0.05
Procedure: Animals were randomized into two peptide groups (200 μg/kg/day and 50 μg/kg/day), Cyclosporine A group (10 mg/kg/day), and saline group (0.5 ml/day). Each group contained 10 mice, in which half were female and half were male. All test substances were dissolved in 0.5 ml saline and administered intraperitoneally once per day for 20 days. T-lymphocyte transformation and NK cell activity were examined on the day immediately following the last injection. The day after the last test substance administration, the mice were sacrificed by cervical dislocation. The spleens were isolated aseptically and manually dispersed in 10% FBS RPMI-1640 solution using an injection needle. The dispersed cell suspension was further sieved through a 100 gauge 150 μm diameter stainless steel sieve and adjusted to 4×10^6/ml. The cell suspensions were inoculated onto a 96 wells cell culture plate, 100 μl/well with the following design. Assay wells: 100 μl cell suspension+100 μl ConA Control wells: 100 μl cell suspension+100 μl RPMI-1640 Four assay and four control wells were set up for each animal. The plates were incubated at 37° C., 5% CO2 for 68 hours. MTT was then added and the plates read at OD 570 nm referenced at 630 nm with ELISA reader. Stimulation Index SI (%)=(assay well OD/control well OD)×100%.

[5] = tested on: mice NK cell; assay: Mice NK cell activity in vivo (i.p. dosing 20 days, spleen effector cells vs YAC-1 target cells, MTT); set-up: species or system BALB/c mice
Procedure: Animals were randomized into two peptide groups (200 μg/kg/day and 50 μg/kg/day), Cyclosporine A group (10 mg/kg/day), and saline group (0.5 ml/day). Each group contained 10 mice, in which half were female and half were male. All test substances were dissolved in 0.5 ml saline and administered intraperitoneally once per day for 20 days. T-lymphocyte transformation and NK cell activity were examined on the day immediately following the last injection. YAC-1 target cells were brought to log phase and adjusted to a density of 1×10^5/ml. Mice spleen cells prepared in section 2.2.2 above were adjusted to a density of 4×10^6/ml and used as effector cells. The cell suspensions were inoculated onto 96 wells cell culture plates as follows: Effector cell wells: 100 μl spleen cell suspension+100 μl RPMI-1640 Assay wells: 100 μl spleen cell suspension+100 μl YAC-1 cell suspension Target cell wells: 100 μl YAC-1 cell suspension+100 μl RPMI-1640 Three assay wells and three effector cell wells were set up for each animal, and 12 target cell wells were set up per cell culture plate. The plates were incubated at 37° C., 5% CO2 for 4 hours, then MTT was added and the plates were read at OD 570 nm referenced at 630 nm with ELISA reader. NK cell activity (%)=1−[(assay wells OD−effector cell wells OD)/target cell wells OD]×100%

[6] = tested on: mice T-lymphocyte; assay: Mice T-lymphocyte transformation induced by ConA in vitro (spleen cells, MTT); format: cell-based, BALB/c mice; conditions: for OD: Table 2, ConA 5 μg/ml, 68 hrs
Procedure: The spleens from healthy mice were isolated aseptically and manually dispersed in 10% FBS RPMI-1640 solution using an injection needle. The dispersed cell suspension was further sieved through a 100-gauge 150 μm diameter stainless steel sieve. The spleen cell suspension was adjusted to a density of 4×10^6/ml and was aliquoted onto 96-well cell culture plates at 100 μl/well. Peptides were dissolved in plain RPMI-1640. The design of the groupings was as given below.
Peptide group: 100 μl working peptide solution+75 μl spleen cell suspension+25 μl ConA working solution.
ConA control group: 100 μl RPMI-1640+75 μl spleen cell suspension+25 μl ConA working solution.
Negative control group: 125 μl RPMI-1640+75 μl spleen cell suspension.
The final concentration of ConA in the well was 5 μg/ml. The final concentrations of peptides in the well were 80 μg/ml, 16 μg/ml, 3.2 μg/ml, 0.64 μg/ml, and 0.128 μg/ml. Each peptide group contained three parallel wells, and eight or twelve wells for the control groups. The cells were incubated for 68 hrs at 37° C., 5% CO2. MTT method was used to obtain a reading of OD570 nm of each well referenced at 630 nm on an ELISA reader.

[7] = at suitable dosage, vs saline control P<0.05

Substance: Dexamethasone Sodium Phosphate [reference compound]
- proteinuria Week 0 ([1]; Week 0, saline treatment 11.72 ± 3.18): 9.48 ± 8.46 mg/dL
- proteinuria Week 1 ([1]; Week 1, saline treatment 122 ± 91): 29 ± 12 mg/dL
- proteinuria Week 2 ([1]; Week 2, saline treatment 160 ± 138): 13.6 ± 6.3 mg/dL
- proteinuria Week 3 ([1]; Week 3, saline treatment 145 ± 33): 13.7 ± 3.1 mg/dL
- proteinuria Week 4 ([1]; Week 4, saline treatment 157 ± 71): 25 ± 19 mg/dL
- Positive area count/glomerulus [2]: 7.5 ± 1.0

Substance: VAPEEHPTLLT [CMS-010.14]
- Sarcoma volume ([3]; 250 μg/kg/day): 0.29 ± 0.21
- Sarcoma weight ([3]; 250 μg/kg/day): 0.44 ± 0.30*^@
- Sarcoma volume ([3]; 500 μg/kg/day): 0.56 ± 0.53
- Sarcoma weight ([3]; 500 μg/kg/day): 0.67 ± 0.70
- SI ([4]; Table 7, 50 μg/kg/d i.p. 20 days, saline 2.96 ± 0.61): 2.12 ± 0.51
- Effect on mice T-lymphocyte transformation in vivo [4]: suppress
- NK cell activity (%) ([5]; Table 9, 50 μg/kg/day i.p. 20 days, saline 55.3 ± 6.1): 75.3 ± 9.0 %
- NK cell activity (%) ([5]; Table 9, 200 μg/kg/day i.p. 20 days, saline 55.3 ± 6.1): 43.1 ± 13.7 %
- Effect on mice NK cell activity in vivo (enhancement) [5, 7]: enhance

Substance: VANPK [CMS-010.105]
- OD ([6]; peptide 0.64 μg/ml, ConA control 0.467 ± 0.043): 0.386 ± 0.008
- OD ([6]; peptide 80 μg/ml, MTT OD570 nm ref 630 nm, ConA control 0.467 ± 0.043, negative control 0.134 ± 0.011): 0.407 ± 0.019
- Effect on mice T-lymphocyte transformation induced by ConA in vitro ([6]; at suitable concentrations, vs ConA positive control P<0.05): suppress

Substance: APLNPK [CMS-010.24]
- Sarcoma volume ([3]; 250 μg/kg/day): 0.36 ± 0.30
- Sarcoma weight ([3]; 250 μg/kg/day): 0.61 ± 0.39
- Sarcoma volume ([3]; 500 μg/kg/day): 0.62 ± 0.47
- Sarcoma weight ([3]; 500 μg/kg/day): 1.20 ± 0.79
- SI ([4]; Table 4, 50 μg/kg/day i.p. 20 days, saline 3.63 ± 0.69): 2.40 ± 0.31
- Effect on mice T-lymphocyte transformation in vivo [4]: suppress
- NK cell activity (%) ([5]; Table 8, 50 μg/kg/day i.p. 20 days, saline 76.0 ± 4.3): 56.0 ± 6.0 %
- NK cell activity (%) ([5]; Table 8, 200 μg/kg/day i.p. 20 days, saline 76.0 ± 4.3): 69.0 ± 7.4 %
- Effect on mice NK cell activity in vivo (suppression) [5, 7]: suppress

From patent US7718764B2, “Biologically active peptide [sequence] derivatives” (CMS Peptides Patent Holding Company Limited, priority 2004, dated 2010)
